# Target: T1, AR protein in VCaP cells (Homo sapiens, UniProt P10275)
# T1 construct: endogenous in cells; host or cells: VCaP cells
# T1 sequence (P10275 1-920): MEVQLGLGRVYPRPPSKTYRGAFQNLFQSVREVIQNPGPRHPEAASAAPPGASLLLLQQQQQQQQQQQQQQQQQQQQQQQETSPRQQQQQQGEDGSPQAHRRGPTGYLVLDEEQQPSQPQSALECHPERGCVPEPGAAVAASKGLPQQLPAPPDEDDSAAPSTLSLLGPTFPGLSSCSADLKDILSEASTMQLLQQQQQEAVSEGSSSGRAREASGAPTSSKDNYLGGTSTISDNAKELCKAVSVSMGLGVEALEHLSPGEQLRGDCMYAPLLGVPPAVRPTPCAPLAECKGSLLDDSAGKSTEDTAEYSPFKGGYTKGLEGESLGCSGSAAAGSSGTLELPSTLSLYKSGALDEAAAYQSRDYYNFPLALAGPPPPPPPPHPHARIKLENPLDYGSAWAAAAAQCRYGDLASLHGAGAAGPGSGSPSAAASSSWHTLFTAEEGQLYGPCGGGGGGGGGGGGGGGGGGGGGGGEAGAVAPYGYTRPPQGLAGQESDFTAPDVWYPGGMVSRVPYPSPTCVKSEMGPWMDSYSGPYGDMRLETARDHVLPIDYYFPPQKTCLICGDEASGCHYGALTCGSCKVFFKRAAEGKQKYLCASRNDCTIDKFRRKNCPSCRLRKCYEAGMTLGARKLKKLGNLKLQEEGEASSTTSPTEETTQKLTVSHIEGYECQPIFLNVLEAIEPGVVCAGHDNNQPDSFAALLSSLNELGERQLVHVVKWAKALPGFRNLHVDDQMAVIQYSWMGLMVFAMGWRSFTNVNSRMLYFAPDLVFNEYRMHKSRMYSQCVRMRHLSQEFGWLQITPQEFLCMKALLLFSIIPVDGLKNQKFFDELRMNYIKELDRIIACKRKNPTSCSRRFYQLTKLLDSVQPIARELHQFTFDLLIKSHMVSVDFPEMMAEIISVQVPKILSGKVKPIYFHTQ
# Assay: VCAP AR Degradation Assay (AR ELISA, 24 h)
# Assay type: cell-based
# Conditions: for Y (lowest measured AR level normalized to DMSO control): AR degradation efficiency; for DC50: concentration of compound when AR level = 50% of DMSO control, read-out: DC50
# Procedure: VCAP AR Degradation Assay.
# Test compounds were pre-dispensed into a Corning CellBind 96-well clear bottom plate (Cat #3300) using an acoustic dispenser to make a 10-point concentration series at 1:3 dilution for each compound. The final top concentration of each compound was […]. DMSO at a final concentration of 0.1% was used as a control. VCaP cells cultured in DMEM with 8% fetal bovine serum (FBS) were seeded at 50K cells per well in a 200 μL volume into the compound plate and incubated at 37° C. in a CO2 incubator for 24 h. The medium was carefully removed from the cells and the plate was placed on ice. One hundred […] of ice-cold 1× cell lysis buffer from Cell Signaling Technologies (Cat #9803) was added to each well of the cells and the plate was incubated at 4° C. on a shaker for 1 h. Fifteen […] of cell lysate was used for AR ELISA detection using a PathScan Total Sandwich AR ELISA kit (Cell Signaling Technology, Cat #12580). AR levels in compound-treated wells were normalized to that of DMSO control and expressed as percent of control (PoC) (y). A Four Parameter Logistic Model (Sigmoidal Dose-Response Model) was used to determine the compound's DC50, and EC50, using the following equation: y=(A+((B−A)/(1+((C/x)^D)))) • A=YMin (lowest AR level normalized to DMSO control in response to compound • treatment, as determined by curve fit) • B=YMax (maximum AR level as determined by curve fit) • C=EC50 • D=Hill Slope • x=compound concentration • EC50=the concentration of compound when y=(YMax−YMin)/2 • DC50=the concentration of the compound when y=50% of DMSO control (50% AR degradation) • y=AR protein level normalized to DMSO control
# The lowest measured AR level normalized to DMSO control in response to compound treatment, termed Y value, was used to characterize the compound-mediated AR degradation efficiency.
Compound,Y (lowest measured AR level normalized to DMSO control),DC50 [nM]
"CCc1cc(N2C(=S)N(c3ccc(C#N)c(C(F)(F)F)c3)C(=O)C2(C)C)ccc1OCCC1CCN([C@@H](C)C(=O)Nc2cc(Cl)cc(NC3CCC(=O)NC3=O)c2)CC1 (stereo partly drawn) [Cmpd 26, (2S)-N-(3-chloro-5-(2,6-dioxopiperidin-3-ylamino)phenyl)-2-(4-(2-(4-(3-(4-cyano-3-(trifluoromethyl)phenyl)-5,5-dimethyl-4-oxo-2-thioxoimidazolidin-1-yl)-2-ethylphenoxy)ethyl)piperidin-1-yl)propanamide]",* (0<Y<=25%),100 to 500
"CCc1cc(N2C(=S)N(c3cnc(C#N)c(C(F)(F)F)c3)C(=O)C23CCC3)ccc1OCCC1CCN(CC(=O)Nc2cc(Cl)cc(NC3CCC(=O)NC3=O)c2)CC1 (centres unmarked) [Cmpd 27, N-(3-chloro-5-(2,6-dioxopiperidin-3-ylamino)phenyl)-2-(4-(2-(4-(7-(6-cyano-5-(trifluoromethyl)pyridin-3-yl)-8-oxo-6-thioxo-5,7-diazaspiro[3.4]octan-5-yl)-2-ethylphenoxy)ethyl)piperidin-1-yl)acetamide]",* (0<Y<=25%),< 100
"CCc1cc(N2C(=S)N(c3ccc(C#N)c(C(F)(F)F)c3)C(=O)C23CCC3)ccc1OCCC1CCN(CC(=O)Nc2cc(Cl)cc(NC3CCC(=O)NC3=O)c2)CC1 (centres unmarked) [Cmpd 28, N-(3-chloro-5-(2,6-dioxopiperidin-3-ylamino)phenyl)-2-(4-(2-(4-(7-(4-cyano-3-(trifluoromethyl)phenyl)-8-oxo-6-thioxo-5,7-diazaspiro[3.4]octan-5-yl)-2-ethylphenoxy)ethyl)piperidin-1-yl)acetamide]",* (0<Y<=25%),100 to 500
"CCc1cc(N2C(=S)N(c3cnc(C#N)c(C(F)(F)F)c3)C(=O)C23CCC3)ccc1OCCC1CCN(CC(=O)Nc2cccc(NC3CCC(=O)NC3=O)c2)CC1 (centres unmarked) [Cmpd 29, 2-(4-(2-(4-(7-(6-cyano-5-(trifluoromethyl)pyridin-3-yl)-8-oxo-6-thioxo-5,7-diazaspiro[3.4]octan-5-yl)-2-ethylphenoxy)ethyl)piperidin-1-yl)-N-(3-(2,6-dioxopiperidin-3-ylamino)phenyl)acetamide]",* (0<Y<=25%),< 100
"CC(F)(F)c1cc(N2C(=S)N(c3ccc(C#N)c(C(F)(F)F)c3)C(=O)C2(C)C)ccc1OCCC1CCN(CC(=O)Nc2cc(Cl)cc(NC3CCC(=O)NC3=O)c2)CC1 (centres unmarked) [Cmpd 30, N-(3-chloro-5-(2,6-dioxopiperidin-3-ylamino)phenyl)-2-(4-(2-(4-(3-(4-cyano-3-(trifluoromethyl)phenyl)-5,5-dimethyl-4-oxo-2-thioxoimidazolidin-1-yl)-2-(1,1-difluoroethyl)phenoxy)ethyl)piperidin-1-yl)acetamide]",* (0<Y<=25%),100 to 500
"CCc1cc(N2C(=S)N(c3ccc(C#N)c(C(F)(F)F)c3)C(=O)C23CCC3)ccc1OCCC1CCN([C@H](C)C(=O)Nc2cc(Cl)cc(NC3CCC(=O)NC3=O)c2)CC1 (stereo partly drawn) [Cmpd 31, (2R)-N-(3-chloro-5-(2,6-dioxopiperidin-3-ylamino)phenyl)-2-(4-(2-(4-(7-(4-cyano-3-(trifluoromethyl)phenyl)-8-oxo-6-thioxo-5,7-diazaspiro[3.4]octan-5-yl)-2-ethylphenoxy)ethyl)piperidin-1-yl)propanamide]",* (0<Y<=25%),100 to 500
"CCc1cc(N2C(=S)N(c3ccc(C#N)c(C(F)(F)F)c3)C(=O)C23CCC3)ccc1OCCC1CCN([C@@H](C)C(=O)Nc2cc(Cl)cc(NC3CCC(=O)NC3=O)c2)CC1 (stereo partly drawn) [Cmpd 32, (2S)-N-(3-chloro-5-(2,6-dioxopiperidin-3-ylamino)phenyl)-2-(4-(2-(4-(7-(4-cyano-3-(trifluoromethyl)phenyl)-8-oxo-6-thioxo-5,7-diazaspiro[3.4]octan-5-yl)-2-ethylphenoxy)ethyl)piperidin-1-yl)propanamide]",** (25%<Y<=35%),100 to 500
"CC1(C)C(=O)N(c2ccc(C#N)c(C(F)(F)F)c2)C(=S)N1c1ccc(OCCC2CCN(CC(=O)Nc3cc(Cl)cc(NC4CCC(=O)NC4=O)c3)CC2)c(CCF)c1 (centres unmarked) [Cmpd 33, N-(3-chloro-5-(2,6-dioxopiperidin-3-ylamino)phenyl)-2-(4-(2-(4-(3-(4-cyano-3-(trifluoromethyl)phenyl)-5,5-dimethyl-4-oxo-2-thioxoimidazolidin-1-yl)-2-(2-fluoroethyl)phenoxy)ethyl)piperidin-1-yl)acetamide]",* (0<Y<=25%),< 100
"CCc1cc(N2C(=S)N(c3cnc(C#N)c(C(F)(F)F)c3)C(=O)C2(C)C)ccc1OCCC1CCN(C2(C(=O)Nc3cc(Cl)cc(NC4CCC(=O)NC4=O)c3)CC2)CC1 (centres unmarked) [Cmpd 34, N-(3-chloro-5-(2,6-dioxopiperidin-3-ylamino)phenyl)-1-(4-(2-(4-(3-(6-cyano-5-(trifluoromethyl)pyridin-3-yl)-5,5-dimethyl-4-oxo-2-thioxoimidazolidin-1-yl)-2-ethylphenoxy)ethyl)piperidin-1-yl)cyclopropanecarboxamide]",*** (35%<Y<50%),500 to 1000

# Second part, the compound after the results:
Y (lowest measured AR level normalized to DMSO control),DC50 [nM],Compound
* (0<Y<=25%),100 to 500,"CCc1cc(N2C(=S)N(c3cnc(C#N)c(C(F)(F)F)c3)C(=O)C23CCC3)ccc1OCCC1CCN([C@@H](C)C(=O)Nc2cc(Cl)cc(NC3CCC(=O)NC3=O)c2)CC1 (stereo partly drawn) [Cmpd 35, (2S)-N-(3-chloro-5-(2,6-dioxopiperidin-3-ylamino)phenyl)-2-(4-(2-(4-(7-(6-cyano-5-(trifluoromethyl)pyridin-3-yl)-8-oxo-6-thioxo-5,7-diazaspiro[3.4]octan-5-yl)-2-ethylphenoxy)ethyl)piperidin-1-yl)propanamide]"
* (0<Y<=25%),100 to 500,"CCc1cc(N2C(=S)N(c3cnc(C#N)c(C(F)(F)F)c3)C(=O)C23CCC3)ccc1OCCC1CCN([C@H](C)C(=O)Nc2cc(Cl)cc(NC3CCC(=O)NC3=O)c2)CC1 (stereo partly drawn) [Cmpd 36, (2R)-N-(3-chloro-5-(2,6-dioxopiperidin-3-ylamino)phenyl)-2-(4-(2-(4-(7-(6-cyano-5-(trifluoromethyl)pyridin-3-yl)-8-oxo-6-thioxo-5,7-diazaspiro[3.4]octan-5-yl)-2-ethylphenoxy)ethyl)piperidin-1-yl)propanamide]"
* (0<Y<=25%),< 100,"CCc1cc(N2C(=S)N(c3cnc(C#N)c(C(F)(F)F)c3)C(=O)C2(C)C)ccc1OCCC1CCN([C@@H](C)C(=O)Nc2cc(C#N)cc(NC3CCC(=O)NC3=O)c2)CC1 (stereo partly drawn) [Cmpd 37, (2S)-N-(3-cyano-5-(2,6-dioxopiperidin-3-ylamino)phenyl)-2-(4-(2-(4-(3-(6-cyano-5-(trifluoromethyl)pyridin-3-yl)-5,5-dimethyl-4-oxo-2-thioxoimidazolidin-1-yl)-2-ethylphenoxy)ethyl)piperidin-1-yl)propanamide]"
** (25%<Y<=35%),< 100,"CCc1cc(N2C(=S)N(c3cnc(C#N)c(C(F)(F)F)c3)C(=O)C2(C)C)ccc1OCCC1CCN([C@H](C)C(=O)Nc2cc(C#N)cc(NC3CCC(=O)NC3=O)c2)CC1 (stereo partly drawn) [Cmpd 38, (2R)-N-(3-cyano-5-(2,6-dioxopiperidin-3-ylamino)phenyl)-2-(4-(2-(4-(3-(6-cyano-5-(trifluoromethyl)pyridin-3-yl)-5,5-dimethyl-4-oxo-2-thioxoimidazolidin-1-yl)-2-ethylphenoxy)ethyl)piperidin-1-yl)propanamide]"
